Values quoted from earlier work as cited in US20060258652A1, “Beta-blockers having antioxidant and no-donor activity” (priority 2002, published 2006).

Key:
[1] = double-blind study, hypertensive patients
[2] = prophylactic use

| SMILES | efficacy in anxiety compared with propranolol [1] | patients in whom the incidence of migraine attacks is reduced [2] |
| --- | --- | --- |
| CC(C)NCC(O)COc1ccc(CC(N)=O)cc1 (centres unmarked) [atenolol] | considerably better than propranolol |  |
| CC(C)NCC(O)COc1cccc2ccccc12 (centres unmarked) [Propranolol] |  | 60% |
